Data reported in ChEMBL document CHEMBL4837181 (Eur J Med Chem, 2020).
Where a SMILES comes first, the peptide text is derived from it. [ ]: non-standard residue; d: D form. dTrp(1-Me) = Cn1cc(C[C@@H](N)C(=O)O)c2ccccc21

Experiments:
[1] = Chemical stability of compound in saline assessed as compound remaining at 5 uM measured after 24 hrs by LC-MS/MS analysis; assay type: physicochemical; conditions: read-out: Stabilty
[2] = Chemical stability of compound in 0.1 N aqueous HCl buffer assessed as compound remaining at pH 1 at 5 uM measured after 1.5 hrs by LC-MS/MS analysis; assay type: physicochemical; conditions: pH 1, 1.5 h
[3] = Chemical stability of compound in 0.1 N aqueous HCl buffer assessed as compound remaining at pH 1 at 5 uM measured after 24 hrs by LC-MS/MS analysis; assay type: physicochemical; conditions: pH 1, 24 h
[4] = Chemical stability of compound in PBS buffer assessed as compound remaining at pH 7.4 at 5 uM measured after 6 hrs by LC-MS/MS analysis; assay type: physicochemical; conditions: read-out: Stabilty
[5] = Chemical stability of compound in PBS buffer assessed as compound remaining at pH 7.4 at 5 uM measured after 24 hrs by LC-MS/MS analysis; assay type: physicochemical; conditions: read-out: Stabilty
[6] = Chemical stability of compound in simulated gastric fluid assessed as compound remaining at 5 uM measured after 1.5 hrs by LC-MS/MS analysis; assay type: ADME, physicochemical; conditions: read-out: Stabilty
[7] = Chemical stability of compound in simulated gastric fluid assessed as compound remaining at 5 uM measured after 24 hrs by LC-MS/MS analysis; assay type: ADME, physicochemical; conditions: read-out: Stabilty
[8] = Chemical stability of compound in simulated intestinal fluid assessed as compound remaining at 5 uM measured after 3 hrs by LC-MS/MS analysis; assay type: ADME, physicochemical; conditions: read-out: Stabilty
[9] = Chemical stability of compound in simulated intestinal fluid assessed as compound remaining at 5 uM measured after 24 hrs by LC-MS/MS analysis; assay type: ADME, physicochemical; conditions: read-out: Stabilty
[10] = Stability in mouse plasma assessed as parent compound remaining measured after 2 hrs by LC-MS/MS analysis; assay type: ADME, cell-free; conditions: read-out: Stabilty
[11] = Stability in rat plasma assessed as parent compound remaining measured after 2 hrs by LC-MS/MS analysis; assay type: ADME, cell-free; conditions: read-out: Stabilty
[12] = Stability in human plasma assessed as parent compound remaining measured after 6 hrs by LC-MS/MS analysis; assay type: ADME, cell-free; conditions: read-out: Stabilty
[13] = Stability in human plasma assessed as parent compound remaining measured after 24 hrs by LC-MS/MS analysis; assay type: ADME, cell-free; conditions: read-out: Stabilty
[14] = Dose normalized Cmax in rat at 10 mg/kg, po measured upto 72 hrs by LC-MS/MS analysis; assay type: ADME, organism-based; conditions: in vivo
[15] = Dose normalized AUC (0 to infinity) in rat at 10 mg/kg, po measured upto 72 hrs by LC-MS/MS analysis; assay type: ADME, organism-based; conditions: in vivo
[16] = Change in normalised Cmax in rat at 10 mg/kg, po measured upto 72 hrs by LC-MS/MS analysis; assay type: ADME, organism-based; conditions: in vivo
[17] = Change in normalised AUCinfinity in rat at 10 mg/kg, po measured upto 72 hrs by LC-MS/MS analysis; assay type: ADME, organism-based; conditions: in vivo
[18] = Change in Cmax in rat at 37 umol/kg, po measured upto 72 hrs by LC-MS/MS analysis; assay type: ADME, organism-based; conditions: in vivo, at 37 µmol/kg
[19] = Change in AUC (infinity) in rat at 37 umol/kg, po measured upto 72 hrs by LC-MS/MS analysis; assay type: ADME, organism-based; conditions: in vivo, at 37 µmol/kg
[20] = Dose normalized Cmax in rat at 50 mg/kg, po measured upto 72 hrs by LC-MS/MS analysis; assay type: ADME, organism-based; conditions: in vivo
[21] = Dose normalized AUC (0 to infinity) in rat at 50 mg/kg, po measured upto 72 hrs by LC-MS/MS analysis; assay type: ADME, organism-based; conditions: in vivo
[22] = Change in normalised Cmax in rat at 50 mg/kg, po measured upto 72 hrs by LC-MS/MS analysis; assay type: ADME, organism-based; conditions: in vivo
[23] = Change in normalised AUC (infinity) in rat at 50 mg/kg, po measured upto 72 hrs by LC-MS/MS analysis; assay type: ADME, organism-based; conditions: in vivo

SMILES | remaining at 24 h, 5 µM [1] [%] | Stabilty [2] [%] | Stabilty [3] [%] | remaining at 6 h, 5 µM [4] [%] | remaining at 24 h, 5 µM [5] [%] | remaining at 1.5 h, 5 µM [6] [%] | remaining at 24 h, 5 µM [7] [%] | remaining at 3 h, 5 µM [8] [%] | remaining at 24 h, 5 µM [9] [%] | remaining at 2 h [10] [%] | remaining at 2 h [11] [%] | remaining at 6 h [12] [%] | remaining at 24 h [13] [%] | Cmax/dose [14] [µM] | AUC/dose [15] [µM·h] | Activity [16] [%] | Activity [17] [%] | Activity [18] [%] | Activity [19] [%] | Cmax/dose [20] [µM] | other results
Cl.Cn1cc(C[C@@H](N)C(=O)OCC2CCNCC2)c2ccccc21 | 23 | 36 | 23 | 92 | 12 | 75 | 73 | 45 | 3 | 0 | 19 | 44 | 2 | 21.5 | 889 | 24 | 75 | -69 | -54 | – | –
Cn1cc(C[C@@H](NC(=O)OCC(C)(C)C)C(=O)O)c2ccccc21 | – | – | – | – | – | – | – | – | – | 100 | 100 | – | – | – | – | – | – | – | – | 0.15 | AUC/dose [21]: 5.5 µM·h; Activity [22]: -99%; Activity [23]: -100%
CCOC(=O)N[C@H](Cc1cn(C)c2ccccc12)C(=O)O | – | – | – | – | – | – | – | – | – | 97 | 100 | – | – | – | – | – | – | – | – | 6 | AUC/dose [21]: 229 µM·h; Activity [22]: -78%; Activity [23]: -83%
Cl.Cn1cc(C[C@@H](N)C(=O)OCC(O)CO)c2ccccc21 (stereo partly drawn) | 99 | 37 | 99 | 50 | 29 | 62 | 58 | 34 | 10 | 0 | 0 | 33 | 11 | 33.3 | 595 | 92 | 17 | 28 | 21 | – | –
Cl.Cn1cc(C[C@@H](NC(=O)CN)C(=O)O)c2ccccc21 (H-Gly-[dTrp(1-Me)]-OH) | 99 | 64 | 99 | 83 | 65 | 80 | 78 | 64 | 38 | 100 | 56 | 78 | 68 | 28 | 599 | 62 | 18 | 10 | 1 | – | –
CC(C)OC(=O)[C@H](N)Cc1cn(C)c2ccccc12.Cl | – | – | – | – | – | – | – | – | – | 0 | 0 | – | – | – | – | – | – | – | – | 28 | AUC/dose [21]: 1051 µM·h; Activity [22]: 4%; Activity [23]: -21%
Cl.Cn1cc(C[C@@H](NC(=O)[C@@H](N)CCCCN)C(=O)O)c2ccccc21 | 100 | 89 | 100 | 93 | 57 | 97 | 92 | 96 | 96 | 77 | 95 | 96 | 78 | 16.7 | 795 | -3 | 56 | 8 | -10 | – | –
Cl.Cn1cc(C[C@@H](NC(=O)[C@@H](N)Cc2c[nH]c3ccccc23)C(=O)O)c2ccccc21 | 61 | 52 | 61 | 55 | 33 | 81 | 73 | 88 | 69 | 90 | 76 | 97 | 94 | 12 | 415 | -31 | -18 | – | – | – | –
Cl.Cn1cc(C[C@@H](N)C(=O)OCc2ccccc2)c2ccccc21 | – | – | – | – | – | – | – | – | – | 0 | 0 | – | – | – | – | – | – | – | – | 28 | AUC/dose [21]: 1028 µM·h; Activity [22]: 4%; Activity [23]: -22%
C[C@H](N)C(=O)N[C@H](Cc1cn(C)c2ccccc12)C(=O)O.Cl | 40 | 100 | 40 | 58 | 34 | 20 | 25 | 36 | 12 | 94 | 92 | 65 | 0 | 13.4 | 310 | -22 | -39 | – | – | – | –
CCOC(=O)[C@@H](Cc1cn(C)c2ccccc12)NC(=O)[C@@H](N)CCC(N)=O.Cl | 85 | 73 | 85 | 67 | 17 | 108 | 88 | 70 | 1 | 0 | 0 | 23 | 0 | 24.4 | 806 | 41 | 58 | 12 | -1 | – | –
